From patent US20250002954A1, “Novel Compound, Use Thereof, and Method for Producing Same, and Compound-Containing Composition, Method for Producing 4-Trehalosamine, and Microorganism” (Microbial Chemistry Research Foundation, priority 2021, published 2025) come the findings set out here.

Series [1] in a line: Starch aging inhibiting effect, enzyme assay 3 (potato starch gel). Conditions: final concentration 10% or 15% (w/w), 48 and 96 hours. The procedure: Starch aging inhibiting effect was determined in a similar manner to the <Enzyme assay 1> except that the “—Preparation of measurement samples—” and “—Determination of starch aging inhibiting effect—” in the <Enzyme assay 1> were changed to the methods below.
The 4-trehalosamine (4TA) obtained in production example 10, and trehalose (TRH), sucrose (SCR), and glycerol (GOL) were each dissolved in water to a final concentration of 10% (w/w) or 15% (w/w), thus preparing aqueous solutions. Into each of the aqueous solutions containing the different sugars or water as control, potato starch (manufactured by Yoshida Pharmaceutical Company Limited) was mixed to a final concentration of 15% (w/w) and suspended uniformly, and the suspension was aliquoted in 33.3 μL volumes to three tubes. […]
Starch aging inhibiting effect was determined in a similar manner to the “—Determination of starch aging inhibiting effect—” of the <Enzyme assay 1> except that measurement of absorbance at 660 nm was changed to measurement of absorbance at 620 nm in the “—Determination of starch aging inhibiting effect—” of the <Enzyme assay 1>, and that quantification (absorbance measurement) of enzyme reaction and sugar was performed for the 0-hour, 48-hour, and 96-hour samples in the quantification (absorbance measurement) of enzyme reaction and sugar. […]

The subject of series [2] is autophagy-related transcription factor EB (TFEB) in OVK18 and Mewo cells. Description: Elevated expression and nuclear localization of TFEB (western blotting, immunostaining). The series is classed as cell-based, human. The note with it: 50 mM 4-trehalosamine, 100 μM IMCTA-C14 or 100 mM trehalose, 14 hours. As to the method: Elevated expression and nuclear localization of autophagy-related transcription factor EB (TFEB) when human ovarian cancer cells or human malignant melanoma cells were treated with 4-trehalosamine or trehalose analog were determined by western blotting and immunostaining.
Fractionation of nuclear and cytoplasm was performed in the following manner using buffer that was a modification of the buffer according to the report of Dignam et al. (J. D. Dignam et al., Nucleic Acids Res, 1983, 11 (5), p. 1475-1489).
Human ovarian cancer cells OVK18 (obtained from RIKEN BRC) and human malignant melanoma cells Mewo (JCRB0066) were each inoculated on a 6-well plate at 2×10^5 cells/2 mL/well, and cultured in DMEM culture medium at 37° C. for 48 hours. After that, as with test example 10-1, a half of the culture fluid in each well was taken, and each compound was dissolved so that the final concentration is 50 mM 4-trehalosamine, 50 µM IMCTA-C14, 100 μM IMCTA-C14, or 100 mM trehalose. After dissolving it sufficiently, the cells were returned to the original well and treated at 37° C. for 14 hours. Untreated cells without addition of the compounds were used as control. […]
The protein concentration of each fraction was measured with protein quantification reagent (XL-Bradford, integrale) and the amount of expression of TFEB in each fraction was examined by western blotting. […]

Structures are written as SMILES.

Consider `N[C@H]1[C@H](O)[C@@H](O)[C@@H](O[C@H]2O[C@H](CO)[C@@H](O)[C@H](O)[C@H]2O)O[C@@H]1CO` [4-trehalosamine], for which the “rate of degradation by β-amylase (starch aging inhibiting effect)” value in series [1] was “significantly high rate of degradation by β-amylase at and after 48 hours compared to the other gels”. In addition, in series [2], the “expression and nuclear localization of TFEB” value was “elevated expression and nuclear localization of TFEB”.
